Assay results taken from patent publication US7776538B2, “Method for diagnosing methamphetamine dependence” (National University Corporation Nagoya University, priority 2005, dated 2010).

Assays:
Gene 1 mRNA = Gene 1 mRNA expression in brain tissue by RT-PCR; assay type: in vivo, mice; settings: for Gene 1 expression amount in the nucleus accumbens induced by methamphetamine: methamphetamine 2 mg/kg s.c. six days, R(+)-SCH23390 0.1 mg/kg i.p. or raclopride 2 mg/kg i.p. 30 minutes before
Experimental: Antisense nucleotide of Gene 1 was continuously infused into the mouse cerebral ventricle by using a mini osmotic pump and methamphetamine was administered to the animals every day.
A mouse was fed with 6% ethanol or water (control) for 12 days, and then was subjected to decapitation. The amount of Gene 1 mRNA in the nucleus accumbens was measured by a RT-PCR method.

mice = assay: Locomotor activity test; assay type: in vivo; settings: methamphetamine administered to mice every day (FIG. 1: 2 mg/kg, s.c., six days), hydrochloride
Experimental: In the test, ICR male mice (Japan SLC, Hamamatsu) that were 8-week old when the test was started. The mice were bred under conditions of light and dark cycle of 12 hours (light up: A.M 8:00), room temperature 23±1° C., and humidity 50±5%. The mice were freely fed with food (CE2: CLEA Japan, Tokyo) and water. Note here that this research program was approved by Animal Research Committee, Nagoya University School of Medicine and carried out in accordance with Guideline of Animal Research of Nagoya University School of Medicine and Principles of Laboratory Animal Care (National Institutes of Health Publication 85-23, 1985).
In the test, an acrylic cage (28 cm in length, 17 cm in width and 13 cm in height) that is the same kind as the home case was used. On the floor, a small amount of breeding chip was placed. […]
On days 1 to 3, mice were placed in a measurement cage for two hours so that the mice became accustomed to the measurement environment. […] Right after the administration, the total locomotor activity for two hours was measured.
Each of the antisense nucleotide of Gene 1 and 2 was infused into the mice cerebral ventricle continuously by using a mini osmotic pump and methamphetamine was administered to the animals every day. The locomotor activity on the first, third and fifth days was measured. […] The locomotor activity was measured for two hours. […]

[1] = tested on: mouse (C57black6) nucleus accumbens; assay: cDNA subtraction of nucleus accumbens mRNA after methamphetamine; assay type: in vivo; settings: methamphetamine 10 consecutive days, five genes incl. Gene 1, Gene 2, Gene 3 (Piccolo)
Experimental: By using RNeasy mini kit (QIAGEN), mRNA was prepared by the following procedure. Mouse brain was taken out and the tissue was divided so as to be 30 mg or less. The brain tissue was dissolved in a solution containing a protein denaturizing agent and centrifuged with a spin column. Ethanol precipitation was repeated. Finally, mRNA was purified with silica gel.
The cDNA subtraction was carried out by using CLONTECH PCR-Select™ cDNA Subtraction Kit (CLONTECH) according to the attached instruction manual.
Methamphetamine-administered mice show hyperactivity, and when methamphetamine is administered to mice every day, the degree of hyperactivity is increased. This can be thought to be a mental disorder accompanying drug dependence (FIG. 1). Then, mRNA was taken out from the mouse (C57black6) nucleus accumbens to which methamphetamine had been administered for 10 consecutive days. Based on this, cDNA subtraction (CLONTECH) was carried out. In mice to which methamphetamine had been administered, a gene in which mRNA expression amount increased by 20 times or more than that of a control group was searched. As a result, five genes satisfy the requirement (FIG. 2). In the genes, three genes except for CREB3 and Odz4 were used for the later research. For convenience of description, each gene is referred to as Gene 1, Gene 2 and Gene 3 (Piccolo).

Genes 1 to 3 mRNA = assay: Expression of Genes 1 to 3 mRNA by RT-PCR / real time RT-PCR after methamphetamine; assay type: in vivo, mice
Text: Furthermore, when the increase of the expression amount was examined by a real time RT-PCR method, the expression amount was increased in the methamphetamine-administered cortex of frontal lobe, nucleus accumbens and striatum, respectively (FIGS. 10 to 12).

[2] = target: T1, human dopamine transporter (Homo sapiens, UniProt Q01959); assay: Fluorescence immunostaining of intracellular movement of dopamine transporter in PC12 cell; settings: before and after methamphetamine was acted
T1 construct: expressed in transfected cells; host or cells: PC12 cells
T1 sequence (Q01959 whole entry): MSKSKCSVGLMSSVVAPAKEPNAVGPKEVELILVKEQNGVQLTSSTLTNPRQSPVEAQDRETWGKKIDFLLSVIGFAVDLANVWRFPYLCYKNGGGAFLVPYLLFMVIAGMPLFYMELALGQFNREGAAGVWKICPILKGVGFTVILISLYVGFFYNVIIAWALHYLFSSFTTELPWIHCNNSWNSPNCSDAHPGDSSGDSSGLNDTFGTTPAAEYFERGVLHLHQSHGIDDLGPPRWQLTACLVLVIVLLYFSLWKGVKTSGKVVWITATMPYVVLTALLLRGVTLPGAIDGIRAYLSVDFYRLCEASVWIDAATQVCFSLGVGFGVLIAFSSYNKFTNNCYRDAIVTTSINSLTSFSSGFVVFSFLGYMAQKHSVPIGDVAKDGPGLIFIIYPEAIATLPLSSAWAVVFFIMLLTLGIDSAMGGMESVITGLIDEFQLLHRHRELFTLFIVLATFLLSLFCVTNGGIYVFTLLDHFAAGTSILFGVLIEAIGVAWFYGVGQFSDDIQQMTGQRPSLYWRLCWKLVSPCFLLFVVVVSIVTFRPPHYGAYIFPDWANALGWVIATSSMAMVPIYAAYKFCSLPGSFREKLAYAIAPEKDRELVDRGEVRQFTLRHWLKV
Experimental: In the PC12 cell, the human dopamine transporter was forcedly expressed and fluorescence immunostaining of a human dopamine transporter was carried out before and after methamphetamine was acted.

c1ccc(C2(N3CCCCC3)CCCCC2)cc1 [phencyclidine]
Gene 1 mRNA amount in the cortex of frontal lobe (Gene 1 mRNA; phencyclidine 10 mg/kg s.c. 14 days): no significant correlation

CN[C@@H](C)Cc1ccccc1.Cl [methamphetamine, methamphetamine hydrochloride]
locomotor activity (mice): enhanced | locomotor activity (mice; listed as Methamphetamine): hyperactivity | mRNA expression amount increase over control group [1]: ≥ 20 times | mRNA of Genes 1 to 3 (RT-PCR) (Genes 1 to 3 mRNA; methamphetamine administered group compared with control group, all primer combinations): increase of mRNA was observed | expression amount of Genes 1 to 3 (real time RT-PCR) (Genes 1 to 3 mRNA; methamphetamine-administered cortex of frontal lobe, nucleus accumbens and striatum): increased | intracellular movement of the human dopamine transporter [2]: intracellular movement of the human dopamine transporter was observed

CN1CCc2cc(Cl)c(O)cc2[C@@H](c2ccccc2)C1 [R(+)-SCH23390]
Gene 1 expression amount in the nucleus accumbens induced by methamphetamine (Gene 1 mRNA): significant difference was observed

CCN1CCC[C@H]1CNC(=O)c1c(O)c(Cl)cc(Cl)c1OC [raclopride]
Gene 1 expression amount in the nucleus accumbens induced by methamphetamine (Gene 1 mRNA): significant difference was observed

CN1CCCC1c1cccnc1 (centres unmarked) [nicotine]
Gene 1 mRNA amount in the nucleus accumbens (Gene 1 mRNA; nicotine 0.05-1.0 mg/kg s.c. 12 days): correlation between the administration of nicotine and the expression amount of Gene 1 was observed

CCO [ethanol]
Gene 1 mRNA amount in the nucleus accumbens (Gene 1 mRNA; 6% ethanol fed for 12 days vs water): no significant correlation
